The values below come from US20060293309A1, “Method of treating disorders and conditions using peripherally-restricted antagonists and inhibitors” (Dynogen Pharmaceuticals, Inc., priority 2005, published 2006).

Test [1] has as its system cisplatin-induced emesis. The test can be described thus: cisplatin-induced retching and vomiting in the ferret. In kind it is in vivo, ferret (Mustela putario furo). The settings on record: 5 mg/kg and 10 mg/kg i.p., 6 h observation. The procedure: The suitability of a compound of the invention to reduce retching and vomiting therapeutically is assessed in an accepted animal model of cytotoxin-induced emesis. Specifically, the experiments described herein are used to investigate the effect of a compound to reduce cisplatin-induced retching and/or vomiting in the ferret. Ondansetron is used as a positive control in the model, in view of its known antiemetic activity (Rudd and Naylor, Eur. J. Pharmacol., 322: 79-82 (1997)).
Adult male ferrets (Mustela putario furo) weighing 1200-1880g are purchased from Triple F Farns (Sayre, Pa.) and housed in individual cages at standardized conditions (12:12 h light/dark cycle and 21-23° C.). […]
Experiments are performed essentially as follows. […] Following administration of the cisplatin and either the test compound, ondansetron (control) or vehicle alone, the occurrence of retching and vomiting is monitored for a period of 6 hours. […] The latency of the retching or vomiting response and the number of episodes are recorded for each animal and are summarized for each experimental group (Wright et al., Infect. Immun., 68(4): 2386-9 (2000)). […]
Cisplatin is expected to induce an emetic response in 100% of the animals receiving vehicle alone. […] The mean latency of the first response post-cicplatin administration is also determined.

Test [2] deals with T1, 5-HT3 human recombinant receptors from HEK-293 cells (Homo sapiens, UniProt P46098).
T1 construct: expressed in transfected cells; host or cells: HEK-293
T1 sequence (P46098 24-478): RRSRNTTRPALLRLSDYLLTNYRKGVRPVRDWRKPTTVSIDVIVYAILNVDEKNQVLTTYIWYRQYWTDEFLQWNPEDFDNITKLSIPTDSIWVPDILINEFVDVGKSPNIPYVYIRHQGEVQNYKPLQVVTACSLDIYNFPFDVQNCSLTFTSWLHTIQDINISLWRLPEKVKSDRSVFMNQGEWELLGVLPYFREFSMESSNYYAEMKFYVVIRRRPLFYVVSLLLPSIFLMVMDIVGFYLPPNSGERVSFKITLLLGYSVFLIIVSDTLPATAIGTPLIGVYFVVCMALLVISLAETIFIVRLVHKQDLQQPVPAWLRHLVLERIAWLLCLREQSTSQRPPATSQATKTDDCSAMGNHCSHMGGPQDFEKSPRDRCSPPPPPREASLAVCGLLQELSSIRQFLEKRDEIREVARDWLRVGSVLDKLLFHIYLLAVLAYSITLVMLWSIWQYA
As to the kind of experiment: 5-HT3 human recombinant binding assay ([3H]GR 65630). The procedure: (§1) The binding of MCI 225 QUAT to various receptors/transporters was compared to that of the non-quaternized parent compound, MCI-225. Binding assays were performed essentially according to procedures as follows.
The 5-HT3 human recombinant binding assay was performed essentially as described in Lummis et al. (1990) Eur. J. Pharmacol. 189:223-27; Hoyer et al. (1988) Mol. Pharmacol. 33:303; and Tyers et al. (1991) Therapie 46:431-435. Briefly, human recombinant receptors were from HEK-293 cells. Tritiated radioligand (GR 65630) was used. % specific binding was determined as a function of log [compound]. MDL 72222 (1 alpha H, 3 alpha, 5 alpha H-tropan-3-yl-3,5-dichlorobenzoate) was used as nonspecific determinant, reference compound and positive control.

Test [3] has as its target T2, norepinephrine transporter (NET), human recombinant from CHO cells (Homo sapiens, UniProt P23975).
T2 construct: expressed in transfected cells; host or cells: CHO
As to the kind of experiment: norepinephrine transporter (NET) binding assay ([3H]nisoxetine). The procedure:
as §1
The norepinephrine transporter (NET) assay was performed essentially as described in Raisman et al. (1982) Eur. J. Pharmacol. 78:345-351 (minor modifications); and Raisman and Briley (1981) Eur. J. Pharmacol. 72:423. Briefly, human recombinant receptors were from CHO cells. Tritiated radioligand (nisoxetine) was used. % specific binding was determined as a function of log [compound]. Desipramine (DMI) was used as nonspecific determinant, reference compound and positive control.

For test [4], the target named is T3, serotonin transporter (SERT), human platelet membranes (Homo sapiens, UniProt P31645).
T3 construct: Briefly, human recombinant receptors were from human platelet membranes; from tissue; host or cells: human platelet membranes
The test can be described thus: serotonin transporter (SERT) binding assay ([3H]N-methyl citalopram). The procedure: Binding assays were performed essentially according to procedures as follows.
The serotonin transporter (SERT) assay was performed essentially as described in D'Armato et al. (1987) J. Pharmacol. & Exp. Ther. 242:364-371 (with modification); and Brown et al. (1986) Eur. J. Pharmacol. 123:161-165. Briefly, human recombinant receptors were from human platelet membranes. Tritiated radioligand (N-methyl citalopram) was used. % specific binding was determined as a function of log [compound]. Imipramine was used as nonspecific determinant, reference compound and positive control.

T2 sequence (P23975 whole entry): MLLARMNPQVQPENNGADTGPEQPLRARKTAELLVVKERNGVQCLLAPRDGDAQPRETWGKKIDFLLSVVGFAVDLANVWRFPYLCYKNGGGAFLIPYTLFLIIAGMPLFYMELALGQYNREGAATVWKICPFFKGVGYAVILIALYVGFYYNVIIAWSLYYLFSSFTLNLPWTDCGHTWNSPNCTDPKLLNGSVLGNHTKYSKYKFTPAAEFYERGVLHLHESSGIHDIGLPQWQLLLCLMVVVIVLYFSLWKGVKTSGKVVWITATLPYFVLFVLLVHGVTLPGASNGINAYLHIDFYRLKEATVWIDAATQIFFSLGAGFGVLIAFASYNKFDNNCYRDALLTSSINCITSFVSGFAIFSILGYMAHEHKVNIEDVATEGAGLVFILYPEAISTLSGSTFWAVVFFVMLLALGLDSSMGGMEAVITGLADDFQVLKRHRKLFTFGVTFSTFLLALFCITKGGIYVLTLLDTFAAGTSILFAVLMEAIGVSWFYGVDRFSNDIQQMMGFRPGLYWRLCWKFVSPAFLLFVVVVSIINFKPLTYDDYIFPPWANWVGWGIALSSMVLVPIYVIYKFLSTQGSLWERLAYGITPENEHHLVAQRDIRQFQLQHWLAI
T3 sequence (P31645 whole entry): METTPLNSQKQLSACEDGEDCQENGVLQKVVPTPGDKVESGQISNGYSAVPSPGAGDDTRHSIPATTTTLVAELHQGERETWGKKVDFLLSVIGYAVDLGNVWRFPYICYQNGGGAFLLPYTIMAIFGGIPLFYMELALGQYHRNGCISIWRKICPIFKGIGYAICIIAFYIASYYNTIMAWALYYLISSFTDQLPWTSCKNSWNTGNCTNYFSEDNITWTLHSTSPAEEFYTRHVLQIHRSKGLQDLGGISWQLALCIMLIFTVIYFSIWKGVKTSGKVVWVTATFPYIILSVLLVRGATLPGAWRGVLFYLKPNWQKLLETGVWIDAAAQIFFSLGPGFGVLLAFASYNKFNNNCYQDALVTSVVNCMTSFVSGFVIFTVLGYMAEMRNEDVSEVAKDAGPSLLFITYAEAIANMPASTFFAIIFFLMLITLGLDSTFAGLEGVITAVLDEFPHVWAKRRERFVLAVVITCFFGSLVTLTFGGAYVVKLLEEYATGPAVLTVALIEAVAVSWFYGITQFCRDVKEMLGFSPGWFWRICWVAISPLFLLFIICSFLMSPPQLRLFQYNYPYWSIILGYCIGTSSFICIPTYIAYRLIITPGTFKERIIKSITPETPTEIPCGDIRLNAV

As to `Cc1nccn1CC1CCc2c(c3ccccc3n2C)C1=O` (centres unmarked) [Ondansetron, ondansetron], in test [1], the “latency of the first emetic response induced by cisplatin” value is “increase the latency” and the “number of emetic events induced by cisplatin” value is “reduce the number of emetic events”.

For the compound `Cc1cc2c(-c3ccccc3F)nc(N3CCNCC3)nc2s1` [compound 225, 4-(2-fluoro-phenyl)-6-methyl-2-piperazin-1-yl-thieno[2,3-d]pyrimidine], the “5-HT3 (hr) % specific binding” value in test [2] (Conc. 1.00E−06) is reported as 100%; in test [2] (Conc. 1.00E−08), 22%; in test [2] (Conc. 1.00E−10) it was 0%. Also, the “NET (hr) % specific binding” value is reported as 104% in test [3] (Conc. 1.00E−06), 72% in test [3] (Conc. 1.00E−08) and 17% in test [3] (Conc. 1.00E−10). For the same compound, the figures for the “SERT (h) % specific binding” value in test [4] (Conc. 1.00E−06), in test [4] (Conc. 1.00E−08) and in test [4] (Conc. 1.00E−10) were 94%, 10% and 1%, respectively.
